Measurements reported in PMC13128454, “Mutant p53 protein accumulation is selectively targetable by proximity-inducing drugs” (Nature Chemical Biology, 2025).
“And” between values parts separate entries of the source, which are not always exact repeats. Identical values can stand only once. Like-named read-outs stand apart in the source and are kept apart here.

Columns and labels:
Assay type in all cases: cell-based
[1] = test system: Calu-1 cells stably expressing Halo–p53-R273H (FL)–mCherry–2A–mTagBFP2-V5; experiment: CellTiter-Glo cell viability; settings: CTG 4 days; for replicates (raw CTG signal): p53_construct Mut
[2] = CellTiter-Glo cell viability; settings: human, p53_construct Mut, CTG 4 days, read-out: mean (normalized viability)
[3] = test system: 293T cells stably expressing Halo–p53-Y220C ΔTAD–mCherry versus parental 293T cells; experiment: crystal violet staining; settings: 5 days
Experimental: The 293T cells were plated in six-well or 12-well plates at low density (~10% confluence) and treated with compound for the indicated duration. Cells were rinsed once with PBS and then stained with crystal violet (0.5% m/v) in 20% methanol–water for 10 min. Cells were washed with water five times and air-dried overnight.

[4] = test system: Halo–p53-R273H (FL)–mCherry 293T cells versus parental 293T cells; experiment: flow-cytometry growth competition; settings: for normalized_mCherry_percentage: R273H, day 8, normalized to DMSO
How it was run: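 Marker-positive and marker-negative cells mixed, plated at low density and treated with varying compound concentrations, passaged and retreated as needed. Fluorophore-positive versus negative fractions quantified by flow cytometry, gated on untreated mixtures.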

Compound: CC[C@@H]1C(=O)N(C)c2cnc(Nc3ccc(C(=O)NC4CCN(C)CC4)cc3OC)nc2N1C1CCCC1 [BI2536]
- differential proliferation effect ([1]; Calu-1 p53 WT versus p53-R273H): lacked a differential proliferation effect
- replicates (raw CTG signal) ([1]; Compound_conc 0.0488281): 197890 and 183273 and 187583 and 162992
- replicates (raw CTG signal) ([1]; Compound_conc 0.0976562): 191053 and 161144 and 203266 and 199816
- replicates (raw CTG signal) ([1]; Compound_conc 0.195312): 176045 and 169600 and 186049 and 169525
- replicates (raw CTG signal) ([1]; Compound_conc 0.390625): 185229 and 162171 and 189977 and 157434
- replicates (raw CTG signal) ([1]; Compound_conc 0.78125): 218482 and 178554 and 204635 and 180452
- replicates (raw CTG signal) ([1]; Compound_conc 1.5625): 174155 and 148473 and 186714 and 171263
- replicates (raw CTG signal) ([1]; Compound_conc 3.125): 194944 and 176651 and 192942 and 172246
- replicates (raw CTG signal) ([1]; Compound_conc 6.25): 144484 and 119258 and 155344 and 132872
- replicates (raw CTG signal) ([1]; Compound_conc 12.5): 123471 and 113233 and 124855 and 101499
- replicates (raw CTG signal) ([1]; Compound_conc 25): 102356 and 92186 and 120326 and 90854
- replicates (raw CTG signal) ([1]; Compound_conc 50): 87813 and 79696 and 71081 and 71223
- replicates (raw CTG signal) ([1]; Compound_conc 100): 63459 and 73795 and 72267 and 61765
- viability at 4 days ([2]; Compound_conc 0.0488281): 112%
- viability at 4 days ([2]; Compound_conc 0.0976562): 115%
- viability at 4 days ([2]; Compound_conc 0.195312): 107%
- viability at 4 days ([2]; Compound_conc 0.390625): 106%
- viability at 4 days ([2]; Compound_conc 0.78125): 119%
- viability at 4 days ([2]; Compound_conc 1.5625): 104%
- viability at 4 days ([2]; Compound_conc 3.125): 113%
- viability at 4 days ([2]; Compound_conc 6.25): 84.3%
- viability at 4 days ([2]; Compound_conc 12.5): 70.7%
- viability at 4 days ([2]; Compound_conc 25): 62%
- viability at 4 days ([2]; Compound_conc 50): 47.3%
- viability at 4 days ([2]; Compound_conc 100): 41.4%

Compound: CC[C@@H]1C(=O)N(C)c2cnc(Nc3ccc(C(=O)NCCOCCOCCOCCOCCC(=O)N4CCC(Nc5cccc6c5cc(C#CCNc5ccc(S(C)(=O)=O)cc5OC)n6CC(F)(F)F)CC4)cc3OC)nc2N1C1CCCC1 [p53-01, PMV6-PEG4-BI2536]
- crystal violet staining [3]: differential antiproliferative activity
- normalized_mCherry_percentage ([4]; 1 nM): 95.51%
- normalized_mCherry_percentage ([4]; 10 nM): 97.26%
- normalized_mCherry_percentage ([4]; 100 nM): 96.23%
- normalized_mCherry_percentage ([4]; 1 uM): 90.97%
- activity in competition ([4]; day 8): did not observe any activity
